Columns and labels:
Test in all cases: relative viability (nuclei count vs DMSO), 5 days (fraction); higher = more cells survive
Zebularine + Navitoclax = compound: O=c1ncccn1[C@@H]1O[C@H](CO)[C@@H](O)[C@H]1O [Zebularine] + CC1(C)CCC(c2ccc(Cl)cc2)=C(CN2CCN(c3ccc(C(=O)NS(=O)(=O)c4ccc(N[C@H](CCN5CCOCC5)CSc5ccccc5)c(S(=O)(=O)C(F)(F)F)c4)cc3)CC2)C1 [Navitoclax] (partner 0.5 µM)
Method in brief: (§1)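 Cells from lung cancer lines were seeded into 1536-well plates and, one day later, dosed by pin tool. Treatments were either a single drug or a fixed dose of an anchor drug with five library-drug doses (not always all listed) in √10 steps. After 5 days, nuclei were stained in a one-step fixation (final 0.05% Triton X-100, 1% formaldehyde, 1 ug/ml Hoechst) and counted on 4× images, and relative viability is the treated-to-vehicle nuclei ratio, as the median of duplicate plates.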

BI-D1870 + Olaparib = compound: CC(C)CCN1c2nc(Nc3cc(F)c(O)c(F)c3)ncc2N(C)C(=O)C1C [BI-D1870] + O=C(c1cc(Cc2n[nH]c(=O)c3ccccc23)ccc1F)N1CCN(C(=O)C2CC2)CC1 [Olaparib] (partner 8 µM)
Method in brief: as §1

Zebularine + Lapatinib = compound: O=c1ncccn1[C@@H]1O[C@H](CO)[C@@H](O)[C@H]1O [Zebularine] + CS(=O)(=O)CCNCc1ccc(-c2ccc3ncnc(Nc4ccc(OCc5cccc(F)c5)c(Cl)c4)c3c2)o1 [Lapatinib] (partner 2 µM)
Method in brief: as §1

Zebularine + Palbociclib = compound: O=c1ncccn1[C@@H]1O[C@H](CO)[C@@H](O)[C@H]1O [Zebularine] + CC(=O)c1c(C)c2cnc(Nc3ccc(N4CCNCC4)cn3)nc2n(C2CCCC2)c1=O [Palbociclib] (partner 0.5 µM)
Method in brief: as §1

Cell Line UMC-11 has a relative viability (Zebularine + Navitoclax; first compound 1 µM) of 0.316, a relative viability (Zebularine + Navitoclax; first compound 3.162 µM) of 0.328 and a relative viability (Zebularine + Navitoclax; first compound 10 µM) of 0.265. For the same cell line, the relative viability (Zebularine + Navitoclax; first compound 31.62 µM) was 0.344, the relative viability (Zebularine + Navitoclax; first compound 100 µM) was 0.238 and the relative viability (BI-D1870 + Olaparib; first compound 0.04 µM) was 0.36. The relative viability (BI-D1870 + Olaparib; first compound 0.1265 µM) was 0.363, the relative viability (BI-D1870 + Olaparib; first compound 0.4 µM) was 0.369 and the relative viability (BI-D1870 + Olaparib; first compound 1.265 µM) was 0.374. For the same cell line, the relative viability (BI-D1870 + Olaparib; first compound 4 µM) was 0.204, the relative viability (Zebularine + Lapatinib; first compound 1 µM) was 1.28 and the relative viability (Zebularine + Lapatinib; first compound 3.162 µM) was 0.977. It also gave a relative viability (Zebularine + Lapatinib; first compound 10 µM) of 0.614, a relative viability (Zebularine + Lapatinib; first compound 31.62 µM) of 0.849 and a relative viability (Zebularine + Lapatinib; first compound 100 µM) of 0.436. For the same cell line, the relative viability (Zebularine + Palbociclib; first compound 1 µM) was 0.329, the relative viability (Zebularine + Palbociclib; first compound 3.162 µM) was 0.315 and the relative viability (Zebularine + Palbociclib; first compound 10 µM) was 0.312. For the same cell line, the relative viability (Zebularine + Palbociclib; first compound 31.62 µM) was 0.344 and the relative viability (Zebularine + Palbociclib; first compound 100 µM) was 0.308.

Source: the supplement of paper PMC10307832
